According to patent US20240376097A1, “BCL-2 Inhibitor” (BeiGene Ltd., priority 2020, published 2024):

What was measured:
[1] = system: BCL-2 G101V knock-in cell line H96 (derive from RS4;11); assay: Bcl 2-G101V Knock-In RS4;11 Cell Proliferation Assay; type: cell-based; details: Homo sapiens, RS4-11, 48 h, RS4;11 Bcl-2 G101V knock-in clone H96, 48 hrs, CellTiter-GLO, read-out: Cellular proliferation assay (IC50, nM) RS4
Outline: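 CellTiter-Glo luminescence after 48 h, 37 °C compound treatment (10 concentrations, maximum 1 μM or 10 μM) gave mean IC50 values. Cells were 50,000 per well of H96, a BCL2-G101V knock-in single clone derived from RS4;11 by Cas9 editing.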

[2] = Metabolic Stability Study, liver microsome incubation (mouse); type: in vitro ADME; details: mouse liver microsomes 0.5 mg/mL, 1 μM compound, NADPH; for half-life at 1 μM: NA^# = very stable, beyond the detection limits, read-out: T1/2 (min) mouse; for microsomal CLint at 1 μM: read-out: CLint (μL × min^−1 × mg^−1) mouse
Protocol: (§1) Biological Example: Metabolic Stability Study
(§2) The metabolic stability of some compounds was evaluated by using the liver microsome incubation system in vitro. Briefly, the test compounds at 1 μM, were incubated with 0.5 mg/mL liver microsomes from different species (human, dog, rat and mouse) with an NADPH regenerating system at 37° C. Samples were quenched at three time points (0, 30, 60 min) with organic solvent containing internal standards, and the supernatant was analyzed for parent loss via LC-MS/MS. Midazolam was used as the positive control to validate the incubation system.
(§3) where Cprotein is the microsomal protein concentration in the incubation system.
(§4) The value of CLint and T1/2 of Example F132b in WO2019210818 and representative compounds of the disclosure were determined, and the results are shown in Table 5.

[3] = Metabolic Stability Study, liver microsome incubation (human); type: in vitro ADME; details: human liver microsomes 0.5 mg/mL, 1 μM compound, NADPH; for half-life at 1 μM: NA^# = very stable, beyond the detection limits, read-out: T1/2 (min) Human; for microsomal CLint at 1 μM: read-out: CLint (μL × min^−1 × mg^−1) Human
Protocol: as §1, §2, §3, §4

[4] = system: RS4;11 (BCL-2 dependent acute lymphoblastic leukemia cell line); assay: RS4;11 Cell Proliferation Assay; type: cell-based; details: Homo sapiens, RS4;11 cells, read-out: Cellular proliferation assay (IC50, nM) RS4
Outline: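 Viability measured via CellTiter-Glo luminescence after a 48 h, 37 °C exposure to compounds (10 points, highest 1 μM). Seeding was 50,000 RS4;11 cells per well in 10% FBS RPMI-1640; IC50 given as mean.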

Row | Compound | IC50 [1] [nM] | half-life at 1 μM [2] [min] | microsomal CLint at 1 μM [2] [µL/min/mg] | half-life at 1 μM [3] [min] | microsomal CLint at 1 μM [3] [µL/min/mg] | IC50 [4] [nM]
1 | COc1ccc(CN2CCN(C3CC4(CCN(c5ccc(C(=O)NS(=O)(=O)c6ccc(NC[C@H]7CC[C@](C)(O)CC7)c([N+](=O)[O-])c6)c(Oc6cnc7[nH]ccc7c6)c5)CC4)C3)C(c3ccccc3C(C)C)C2)cc1 (stereo partly drawn) [Example 19, 2-((1H-pyrrolo[2,3-b]pyridin-5-yl)oxy)-N-((4-((((1r,4r)-4-hydroxy-4-methylcyclohexyl)methyl)amino)-3-nitrophenyl)sulfonyl)-4-(2-(2-(2-isopropylphenyl)-4-(4-methoxybenzyl)piperazin-1-yl)-7-azaspiro[3.5]nonan-7-yl)benzamide] | 1.9 | 292 | 4.7 | 1230 | 1.1 | 0.33
2 | COc1cc(CN2CCN(C3CC4(CCN(c5ccc(C(=O)NS(=O)(=O)c6ccc(NC[C@H]7CC[C@](C)(O)CC7)c([N+](=O)[O-])c6)c(Oc6cnc7[nH]ccc7c6)c5)CC4)C3)C(c3ccccc3C(C)C)C2)cc(OC)c1 (stereo partly drawn) [Example 49] | 2.4 | 205 | 6.7 | 93.4 | 14.8 | 0.49
